Key:
[1] = relative to Angiopep-1 (250 nM); threshold defining 'efficiently transported across the BBB'; cited from earlier work
[2] = in situ brain perfusion assay, Angiopep-1 dimer vs Angiopep-2; format: in vivo
Experimental: Volume of brain parenchymal distribution was measured using the in situ brain perfusion assay (FIG. 6). […] Parenchymal uptake of the Angiopep-1 dimer and Angiopep-2 was also measured at various concentrations in situ (FIG. 7).

Molecule	transport across the BBB relative to Angiopep-1 [1] [%]	Volume of brain parenchymal distribution ([2]; as compared to monomeric Angiopep-2, especially at lower concentrations, FIG. 6)	Parenchymal uptake ([2]; various concentrations in situ, especially at lower concentrations (<500 nmol), compared to Angiopep-2 monomer, FIG. 7)
Angiopep-6: peptide vector, SEQ ID NO:111, T F F Y G G S R G K R N N F R T E E Y (TFFYGGSRGKRNNFRTEEY)	38.5	–	–
C[C@@H](O)[C@H](N)C(=O)N[C@@H](Cc1ccccc1)C(=O)N[C@@H](Cc1ccccc1)C(=O)N[C@@H](Cc1ccc(O)cc1)C(=O)NCC(=O)NCC(=O)N[C@@H](CSSC[C@H](NC(=O)CNC(=O)CNC(=O)[C@H](Cc1ccc(O)cc1)NC(=O)[C@H](Cc1ccccc1)NC(=O)[C@H](Cc1ccccc1)NC(=O)[C@@H](N)[C@@H](C)O)C(=O)N[C@@H](CCCNC(=N)N)C(=O)NCC(=O)N[C@@H](CCCCN)C(=O)N[C@@H](CCCNC(=N)N)C(=O)N[C@@H](CC(N)=O)C(=O)N[C@@H](CC(N)=O)C(=O)N[C@@H](Cc1ccccc1)C(=O)N[C@@H](CCCCN)C(=O)N[C@H](C(=O)N[C@@H](CCC(=O)O)C(=O)N[C@@H](CCC(=O)O)C(=O)N[C@@H](Cc1ccc(O)cc1)C(N)=O)[C@@H](C)O)C(=O)N[C@@H](CCCNC(=N)N)C(=O)NCC(=O)N[C@@H](CCCCN)C(=O)N[C@@H](CCCNC(=N)N)C(=O)N[C@@H](CC(N)=O)C(=O)N[C@@H](CC(N)=O)C(=O)N[C@@H](Cc1ccccc1)C(=O)N[C@@H](CCCCN)C(=O)N[C@H](C(=O)N[C@@H](CCC(=O)O)C(=O)N[C@@H](CCC(=O)O)C(=O)N[C@@H](Cc1ccc(O)cc1)C(N)=O)[C@@H](C)O [Angiopep-1 dimer]	–	Great uptake volumes	higher transport than the Angiopep-2 monomer

— patent publication US9161988B2, “Multimeric peptide conjugates and uses thereof” (Angiochem Inc., priority 2009, dated 2015)
